Source: US20230021483A1, “[…] […] METHOD AND CLASSIFICATION OF PHARMACEUTICAL COMPONENTS BY USING TRANSCRIPTOMES” (National Institutes of Biomedical Innovation, Health and …, priority 2016, published 2023)

Key:
[1] = tested on: adjuvant-associated biological themes in LV, SP, LN; conditions: LV, ID
Procedure, shortened: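 Per-mouse whole-organ transcriptomes; genes with eij/ei(c)>2.0 tested for theme enrichment via TargetMine (GO, KEGG, Reactome, others), Fisher's exact test, Holm-Bonferroni correction. Themes shared by all three mice kept at p<0.05, using the smallest p. Score per adjuvant-associated term = Σ−log(p) of matching themes.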

liver (LV) = assay: Whole organ transcriptome (GeneChip microarray) of liver 6 h after adjuvant administration: sDEGs, hierarchical clustering; format: in vivo, C57BL/6 mice; conditions: hierarchical clustering, liver; further: key: G1 (interferon signaling); G2 (metabolism of lipids and lipoproteins); G3 (response to stress); G4 (response to wounding); G5 (phosphate-containing compound metabolic process); G6 (phagosome)

Nc1nc2c(ncn2[C@@H]2O[C@@H]3COP(=O)(O)O[C@H]4[C@@H](O)[C@H](n5cnc6c(=O)[nH]c(N)nc65)O[C@@H]4COP(=O)(O)O[C@H]3[C@H]2O)c(=O)[nH]1 [cdiGMP, Cyclic diguanylate monophosphate]
GO annotation: Cytokine-cytokine receptor interaction (Term: cytokine) [1]: 13.8
GO annotation: Cytokine-cytokine receptor interaction|Endocytosis (Term: cytokine) [1]: 33.9
GO annotation: I-kappaB kinase/NF-kappaB signaling (Term: NF-kappa B signaling pathway) [1]: 13.8
GO annotation: NF-kappa B signaling pathway (Term: NF-kappa B signaling pathway) [1]: 15.7
GO annotation: TNF signaling pathway (Term: TNF signaling pathway) [1]: 31.3
GO annotation: activation of immune response (Term: immune response) [1]: 17.9
GO annotation: activation of innate immune response (Term: innate immune response) [1]: 21.2
GO annotation: acute inflammatory response (Term: inflammatory response) [1]: 0
GO annotation: adaptive immune response (Term: adaptive immune response) [1]: 10
GO annotation: adaptive immune response based on somatic recombination of immune receptors built from immunoglobulin superfamily domains (Term: adaptive immune response) [1]: 10.6
GO annotation: apoptotic process (Term: apoptosis) [1]: 12.1
GO annotation: apoptotic signaling pathway (Term: apoptosis) [1]: 0
GO annotation: cell chemotaxis (Term: chemotaxis) [1]: 0
GO annotation: cell death (Term: cell death) [1]: 17.7
GO annotation: cell migration (Term: migration) [1]: 0
GO annotation: cellular response to cytokine stimulus (Term: cytokine) [1]: 38.8
GO annotation: cellular response to interferon-alpha (Term: IFN alpha) [1]: 7.42
GO annotation: cellular response to stress (Term: stress) [1]: 0
GO annotation: chemokine production (Term: chemokine) [1]: 8.52
GO annotation: chemokine-mediated signaling pathway (Term: chemokine) [1]: 5.9
GO annotation: chemotaxis (Term: chemotaxis) [1]: 0
GO annotation: cytokine biosynthetic process (Term: cytokine) [1]: 7.93
GO annotation: cytokine metabolic process (Term: cytokine) [1]: 7.39
GO annotation: cytokine production (Term: cytokine) [1]: 31.3
GO annotation: cytokine secretion (Term: cytokine) [1]: 0
GO annotation: cytokine-mediated signaling pathway (Term: cytokine) [1]: 20
GO annotation: death (Term: cell death) [1]: 12.1
GO annotation: defense response (Term: defense response) [1]: 80.9
GO annotation: defense response to Gram-positive bacterium (Term: defense response) [1]: 7.18
GO annotation: defense response to bacterium (Term: defense response) [1]: 10.5
GO annotation: defense response to other organism (Term: defense response) [1]: 44.1
GO annotation: defense response to protozoan (Term: defense response) [1]: 5.31
GO annotation: defense response to virus (Term: defense response) [1]: 24.6
GO annotation: granulocyte chemotaxis (Term: chemotaxis) [1]: 0
GO annotation: granulocyte migration (Term: migration) [1]: 0
GO annotation: immune response (Term: immune response) [1]: 52.3
GO annotation: immune response-activating signal transduction (Term: immune response) [1]: 19.3
GO annotation: immune response-regulating signaling pathway (Term: immune response) [1]: 23.5
GO annotation: inflammatory response (Term: inflammatory response) [1]: 26.1
GO annotation: innate immune response (Term: innate immune response) [1]: 40.7
GO annotation: innate immune response-activating signal transduction (Term: innate immune response) [1]: 20.3
GO annotation: interferon-alpha production (Term: IFN alpha) [1]: 7.69
GO annotation: intrinsic apoptotic signaling pathway (Term: apoptosis) [1]: 0
GO annotation: leukocyte chemotaxis (Term: chemotaxis) [1]: 0
GO annotation: leukocyte migration (Term: migration) [1]: 0
GO annotation: leukocyte migration involved in inflammatory response (Term: inflammatory response) [1]: 0
GO annotation: lymphocyte chemotaxis (Term: chemotaxis) [1]: 0
GO annotation: lymphocyte migration (Term: migration) [1]: 0
GO annotation: myeloid leukocyte migration (Term: migration) [1]: 0
GO annotation: negative regulation of apoptotic process (Term: apoptosis) [1]: 0
GO annotation: negative regulation of cell death (Term: cell death) [1]: 0
GO annotation: negative regulation of cytokine production (Term: cytokine) [1]: 6.2
GO annotation: negative regulation of defense response (Term: defense response) [1]: 8.05
GO annotation: negative regulation of immune response (Term: immune response) [1]: 6.54
GO annotation: negative regulation of innate immune response (Term: innate immune response) [1]: 10.4
GO annotation: negative regulation of programmed cell death (Term: cell death) [1]: 0
GO annotation: neutrophil chemotaxis (Term: chemotaxis) [1]: 0
GO annotation: neutrophil migration (Term: migration) [1]: 0
GO annotation: positive regulation of I-kappaB kinase/NF-kappaB signaling (Term: NF-kappa B signaling pathway) [1]: 7.15
GO annotation: positive regulation of adaptive immune response (Term: adaptive immune response) [1]: 0
GO annotation: positive regulation of apoptotic process (Term: apoptosis) [1]: 0
GO annotation: positive regulation of cell death (Term: cell death) [1]: 0
GO annotation: positive regulation of cell migration (Term: migration) [1]: 0
GO annotation: positive regulation of chemokine production (Term: chemokine) [1]: 8.31
GO annotation: positive regulation of chemotaxis (Term: chemotaxis) [1]: 0
GO annotation: positive regulation of cytokine biosynthetic process (Term: cytokine) [1]: 3.62
GO annotation: positive regulation of cytokine production (Term: cytokine) [1]: 23.6
GO annotation: positive regulation of defense response (Term: defense response) [1]: 35.8
GO annotation: positive regulation of immune response (Term: immune response) [1]: 24.4
GO annotation: positive regulation of inflammatory response (Term: inflammatory response) [1]: 0
GO annotation: positive regulation of innate immune response (Term: innate immune response) [1]: 22.3
GO annotation: positive regulation of interferon-alpha production (Term: IFN alpha) [1]: 8.97
GO annotation: positive regulation of leukocyte chemotaxis (Term: chemotaxis) [1]: 0
GO annotation: positive regulation of leukocyte migration (Term: migration) [1]: 3.33
GO annotation: positive regulation of programmed cell death (Term: cell death) [1]: 0
GO annotation: positive regulation of response to wounding (Term: wounding) [1]: 0
GO annotation: positive regulation of tumor necrosis factor superfamily cytokine (Term: cytokine) [1]: 0
GO annotation: production of molecular mediator of immune response (Term: immune response) [1]: 0
GO annotation: programmed cell death (Term: cell death) [1]: 14
GO annotation: regulation of I-kappaB kinase/NF-kappaB signaling (Term: NF-kappa B signaling pathway) [1]: 8.16
GO annotation: regulation of adaptive immune response (Term: adaptive immune response) [1]: 8.01
GO annotation: regulation of adaptive immune response based on somatic recombination of immune receptors built from immunoglobulin superfamily domains (Term: adaptive immune response) [1]: 3.64
GO annotation: regulation of apoptotic process (Term: apoptosis) [1]: 4.93
GO annotation: regulation of apoptotic signaling pathway (Term: apoptosis) [1]: 0
GO annotation: regulation of cell death (Term: cell death) [1]: 4.48
GO annotation: regulation of cell migration (Term: migration) [1]: 0
GO annotation: regulation of chemokine production (Term: chemokine) [1]: 9.64
GO annotation: regulation of chemotaxis (Term: chemotaxis) [1]: 0
GO annotation: regulation of cytokine biosynthetic process (Term: cytokine) [1]: 3.81
GO annotation: regulation of cytokine production (Term: cytokine) [1]: 31.6
GO annotation: regulation of defense response (Term: defense response) [1]: 56.5
GO annotation: regulation of defense response to virus (Term: defense response) [1]: 0
GO annotation: regulation of defense response to virus by host (Term: defense response) [1]: 0
GO annotation: regulation of immune response (Term: immune response) [1]: 29.4
GO annotation: regulation of inflammatory response (Term: inflammatory response) [1]: 12.3
GO annotation: regulation of innate immune response (Term: innate immune response) [1]: 33.4
GO annotation: regulation of interferon-alpha production (Term: IFN alpha) [1]: 8.3
GO annotation: regulation of intrinsic apoptotic signaling pathway (Term: apoptosis) [1]: 0
GO annotation: regulation of leukocyte chemotaxis (Term: chemotaxis) [1]: 0
GO annotation: regulation of leukocyte migration (Term: migration) [1]: 0
GO annotation: regulation of programmed cell death (Term: cell death) [1]: 5.36
GO annotation: regulation of response to stress (Term: stress) [1]: 42.9
GO annotation: regulation of response to wounding (Term: wounding) [1]: 10.7
GO annotation: regulation of tumor necrosis factor superfamily cytokine production (Term: cytokine) [1]: 4.03
GO annotation: response to cytokine (Term: cytokine) [1]: 56.3
GO annotation: response to interferon-alpha (Term: IFN alpha) [1]: 12.6
GO annotation: response to stress (Term: stress) [1]: 56.2
GO annotation: response to wounding (Term: wounding) [1]: 11.4
GO annotation: taxis (Term: chemotaxis) [1]: 0
GO annotation: tumor necrosis factor superfamily cytokine production (Term: cytokine) [1]: 3.79
IFN beta: cellular response to interferon-beta [1]: 23.1
IFN beta: interferon-beta production [1]: 8.61
IFN beta: positive regulation of interferon-beta production [1]: 13.2
IFN beta: regulation of interferon-beta production [1]: 9.22
IFN beta: response to interferon-beta [1]: 26.5
IFN gamma: cellular response to interferon-gamma [1]: 10.1
IFN gamma: interferon-gamma production [1]: 5.35
IFN gamma: regulation of interferon-gamma production [1]: 0
IFN gamma: response to interferon-gamma [1]: 10.8
interleukin-6: interleukin-6 production [1]: 7.8
interleukin-6: positive regulation of interleukin-6 production [1]: 0
interleukin-6: regulation of interleukin-6 production [1]: 8.27
interleukin-12: interleukin-12 production [1]: 6.51
interleukin-12: positive regulation of interleukin-12 production [1]: 0
interleukin-12: regulation of interleukin-12 production [1]: 6.99
adjuvant group (cluster) in LV (liver (LV)): G1
